Patent US20210047278A1, “E3 UBIQUITIN LIGASE AGONISTS, PHARMACEUTICAL COMPOSITIONS INCLUDING THE E3 UBIQUITIN LIGASE AGONISTS, RELATED METHODS OF USE” (FRED HUTCHINSON CANCER RESEARCH CENTER, priority 2018, published 2021)
Read-outs that look alike come from different tables or passages of the source.

What was measured:
Format in all cases: binding
[1] = biological target: T1, FBW7^ARG+pCycE (Homo sapiens, UniProt Q969H0, R505L); experiment: FBW7^ARG-cyclin E agonist ALPHAscreen (primary PRUN, confirmation CRUN1, dose-response DRUN); conditions: for EC50 / Emax: DRUN dose-response; for Emax: relative to WT-FBW7+pCycE, read-out: FBW7 ACT Averaged Max % Response
T1 construct: GST (TEV site and flexible linker) (N, cleaved yes); made in house; host or cells: SF9 insect cells (baculovirus)
T1 sequence (Q969H0 64-707 R505L): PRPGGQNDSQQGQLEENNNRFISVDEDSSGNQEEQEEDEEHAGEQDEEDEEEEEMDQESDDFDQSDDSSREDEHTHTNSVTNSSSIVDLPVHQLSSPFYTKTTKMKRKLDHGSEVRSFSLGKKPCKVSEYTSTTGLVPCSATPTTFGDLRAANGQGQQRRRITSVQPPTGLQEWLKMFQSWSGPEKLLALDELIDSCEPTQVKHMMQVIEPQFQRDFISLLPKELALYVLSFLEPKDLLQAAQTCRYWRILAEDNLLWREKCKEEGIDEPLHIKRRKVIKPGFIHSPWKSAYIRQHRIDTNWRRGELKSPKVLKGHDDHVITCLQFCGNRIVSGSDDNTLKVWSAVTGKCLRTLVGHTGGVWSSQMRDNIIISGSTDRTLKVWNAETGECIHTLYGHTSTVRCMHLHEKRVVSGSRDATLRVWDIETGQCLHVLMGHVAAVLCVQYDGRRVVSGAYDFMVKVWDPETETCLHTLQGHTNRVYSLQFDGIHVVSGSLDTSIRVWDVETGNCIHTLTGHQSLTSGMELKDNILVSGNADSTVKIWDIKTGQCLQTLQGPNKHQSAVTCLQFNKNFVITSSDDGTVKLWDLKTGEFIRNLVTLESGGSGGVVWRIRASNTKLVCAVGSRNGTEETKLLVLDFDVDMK
T1 sequence (P63208 2-163 partner): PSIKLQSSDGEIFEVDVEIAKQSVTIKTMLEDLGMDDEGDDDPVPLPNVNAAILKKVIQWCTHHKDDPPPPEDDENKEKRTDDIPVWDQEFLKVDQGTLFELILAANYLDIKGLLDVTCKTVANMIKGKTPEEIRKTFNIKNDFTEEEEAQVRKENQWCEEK
Outline: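 ALPHAscreen agonist assay: His-tagged FBW7 R505L on Ni-chelate acceptor beads (25 nM FBW7, 25 nM biotinylated phospho-cyclin E peptide, 10 µg/ml beads), streptavidin donor beads, ALPHA signal read. Primary and confirmation runs at 26.1 μM; dose-response as 10-point 3-fold series to ~87 μM, in triplicate; activation relative to WT-FBW7+pCycE.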

[2] = system: pCycE alone; experiment: Counterscreen 2 ALPHAscreen with cyclin E phosphopeptide alone (CSRUN2/DCSRUN2); conditions: for CyCEP ACT DCSRUN2 Averaged Max % Response: activation relative to WT-FBW7+pCycE, averaged maximum; for EC50: dose-response, triplicate, 10 point 3-fold dilutional series, read-out: CyCEP ACT DCSRUN2 Final EC50
Outline: (§1)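 ALPHAscreen counterscreens, read on ENVISION, omitting either FBW7^ARG or the phosphorylated cyclin E peptide to flag general ALPHAscreen agonists. Compounds tested in triplicate as 10-point 3-fold dilutions up to approximately 87 μM. Activation expressed relative to WT-FBW7+pCycE, with 10% set as positive.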

[3] = biological target: T2, FBW7^ARG (RLFBW7) alone (Homo sapiens, UniProt Q969H0, R505L); experiment: Counterscreen 1 ALPHAscreen with FBW7^ARG alone (CSRUN1/DCSRUN1); conditions: dose-response counterscreen; for Emax: read-out: RLFBW7 ACT DCSRUN1 Averaged Max % Response
T2 construct: GST (TEV site and flexible linker) (N, cleaved yes); made in house; host or cells: SF9 insect cells (baculovirus)
T2 sequence (Q969H0 64-707 R505L): as the sequence (Q969H0 64-707 R505L) above
T2 sequence (P63208 2-163 partner): as the sequence (P63208 2-163 partner) above
Outline: as §1

[4] = raw curve fit, read-out: FBW7 ACT EC50 Curve Fit Raw, Molar
[5] = triplicate, 10 point 3-fold dilution, max approx. 87 μM, read-out: FBW7 ACT Final EC50, Molar
[6] = confirmation assay, triplicate, single concentration 26.1 μM, read-out: FBW7 ACT CRUN1 Avg % Response and Stdev
[7] = primary screen, 1536-well, 26.1 μM, FBW7^ARG + pCycE degron peptide, high control wt-FBW7+pCycE, read-out: FBW7 ACT PRUN % Response
[8] = raw curve fit, read-out: RLFBW7 ACT DCSRUN1 EC50 Curve Fit Raw
[9] = read-out: RLFBW7 ACT DCSRUN1 Final EC50

EC50 [1, 4] [µM] | Emax [1] [%] | EC50 [1, 5] [µM] | activation at 26.1 µM [1, 6] [%] | activation at 26.1 µM [1, 7] [%] | EC50 [3, 8] [µM] | Emax [3] [%] | EC50 [3, 9] [µM] | SMILES | CyCEP ACT DCSRUN2 Averaged Max % Response [2] [%] | EC50 [2] [µM]
16.4 | 9.01 | > 45.8 | 4.54 ± 0.53 | 2.09 | 0.0785 | 3.8 | > 45.8 | CC1=C(C(=O)OCCc2ccccc2)C(c2ccc(Cl)cc2Cl)C2=C(CC(C)(C)CC2=O)N1 (stereo not shown) [SR-01000419178-1] | 0.09 | > 45.8
18.2 | 10 | > 50.8 | 6.77 ± 1.17 | 1.92 | 20.2 | 3.33 | > 50.8 | CC1=C(C(=O)OC2CCCCC2)C(c2ccc(F)cc2)C2=C(CC(c3ccccc3)CC2=O)N1 (stereo not shown) [SR-01000420805-1] | 0.22 | > 50.8
0.0412 | 8.15 | > 43.2 | 3.2 ± 0.75 | 2.01 | – | 0.32 | > 43.2 | Cc1cc(OCC(=O)Nc2ccc3oc(-c4ccccc4Br)nc3c2)cc(C)c1Cl [SR-01000421466-1] | 0.02 | > 43.2
0.0401 | 6.91 | > 56.7 | 4.37 ± 0.72 | 1.87 | 0.619 | 0.11 | > 56.7 | Cc1c(NC(=O)/C(=C\c2ccccc2)NC(=O)c2ccccc2)c(=O)n(-c2ccccc2)n1C [SR-01000422225-1] | 0.18 | > 56.7
14.3 | 9.7 | > 42.9 | 6.29 ± 0.67 | 2.42 | 14.5 | 1.86 | > 42.9 | COc1ccc(C2CC(=O)C3=C(C2)NC(C)=C(C(=O)OC(C)C)C3c2ccccc2OC(C)C)cc1 (stereo not shown) [SR-01000422384-1] | 0.09 | > 42.9
30.4 | 8.49 | > 51.3 | 5.36 ± 0.53 | 3.41 | 0.689 | 3 | > 51.3 | COCCOC(=O)C1=C(C)NC2=C(C(=O)CC(c3ccccc3)C2)C1c1ccc(OCc2ccccc2)cc1 (stereo not shown) [SR-01000422392-1] | −57.8E−3 | > 51.3
7.1 | 7.86 | > 54.4 | 5.2 ± 0.56 | 2.03 | 24.5 | 0.86 | > 54.4 | CCSCCOC(=O)C1=C(C)NC2=C(C(=O)CCC2)C1c1ccc(Br)cc1 (stereo not shown) [SR-01000422432-1] | 0.21 | > 54.4
16 | 9.85 | > 45.8 | 6.44 ± 0.56 | 1.86 | 24.1 | 4.29 | > 45.8 | CCC(C)OC(=O)C1=C(C)NC2=C(C(=O)CC(c3ccc(Cl)cc3)C2)C1c1cccc(Cl)c1 (stereo not shown) [SR-01000422821-1] | 0.13 | > 45.8
2400 | 10.3 | > 45.9 | 5.59 ± 0.74 | 2.6 | 16.4 | 4.23 | > 45.9 | COc1ccccc1C1C(C(=O)OC2CCCC2)=C(C)NC2=C1C(=O)CC(c1ccccc1)C2 (stereo not shown) [SR-01000422836-1] | 0.14 | > 45.9
15.9 | 13 | > 47.6 | 5.54 ± 0.29 | 2.18 | – | 8.99 | > 47.6 | CCC(C)OC(=O)C1=C(C)NC2=C(C(=O)CC(c3ccccc3)C2)C1c1cccc2ccccc12 (stereo not shown) [SR-01000423185-1] | 11.24 | > 47.6
0.0034 | 8.34 | > 34.2 | 4.66 ± 1.07 | 1.93 | – | 1.54 | > 34.2 | CC1=C(C(=O)OCc2ccccc2)C(c2cn(-c3ccccc3)nc2-c2ccc(F)cc2)C(C(=O)OCc2ccccc2)=C(C)N1 [SR-01000425637-1] | 2.59 | > 34.2
0.0036 | 7.92 | > 41.4 | 5.16 ± 0.69 | 2.28 | 0.0044 | 0.91 | > 41.4 | CCSCCOC(=O)C1=C(C)NC2=C(C(=O)CC(c3ccccc3)C2)C1c1ccc(OC)cc1OC (stereo not shown) [SR-01000425645-1] | 2.61 | > 41.4
23.8 | 8.75 | > 62.2 | 5.27 ± 1.17 | 2.58 | 0.0056 | 1.53 | > 62.2 | COc1ccc(COC(=O)C2=C(C)NC3=C(C(=O)CC(C)(C)C3)C2c2ccccc2)cc1 (stereo not shown) [SR-01000427708-1] | 1.77 | > 62.2
15.1 | 9.73 | > 87.4 | 11.2 ± 1.65 | 2.51 | 0.0102 | 1.48 | > 87.4 | COc1ccc(N2C(=O)CC(SCCN)C2=O)cc1 (stereo not shown) [SR-01000428800-1] | 2.47 | > 87.4
0.0082 | 8.63 | > 72.9 | 5.32 ± 2.7 | 2.34 | 0.0102 | 1.65 | > 72.9 | Fc1ccccc1CSc1nnnn1-c1ccccc1F [SR-01000432842-1] | 2.47 | > 72.9
9.6 | 15.5 | > 45.3 | 5.81 ± 0.4 | 6.08 | 0.0074 | 1.76 | > 45.3 | CCOC(=O)C1CCN(C(=O)Nc2ccc(NC(=O)C3CCN(C(=O)OCC)CC3)cc2)CC1 [SR-01000451467-1] | 2.82 | > 45.3
0.0054 | 8.52 | > 43.6 | 3.84 ± 1.06 | 1.93 | 0.0052 | 1.87 | > 43.6 | CCOc1ccc(Br)cc1C1C2=C(CCCC2=O)N(CC(=O)O)C2=C1C(=O)CCC2 [SR-01000476712-1] | 2.30 | > 43.6
19.6 | 16.5 | > 54 | 2.31 ± 0.38 | 2.28 | 0.008 | 2.77 | > 54 | Cc1ccc(-c2nnc(N3CCN(C(=O)c4ccco4)CC3)c3ccccc23)cc1 [SR-01000505133-1] | 1.77 | > 54
5.7 | 13.7 | > 49.3 | 4.18 ± 0.65 | 4.07 | – | 1.89 | > 49.3 | CCCCCCCC(=O)Nc1ccc(C(=O)Nc2ccc(O)c(C(=O)O)c2)cc1 [SR-01000507444-1] | 2.05 | > 49.3
7.3 | 10.1 | > 56.6 | 2.1 ± 0.29 | 2.07 | 7.5 | 2.56 | > 56.6 | COc1ccc(SCC(=O)NNC(=S)Nc2ccccc2)cc1 [SR-01000526835-1] | 2.80 | > 56.6
– | 12 | – | 2.81 ± 0.04 | 2.16 | – | 3.64 | – | CCOC(=O)C1=CN(Cc2ccc(OC)cc2)C=C(C(=O)OCC)C1c1ccccc1OCc1ccccc1 [SR-01000587933-1] | 2.45 | > 44.2
0.698 | 7.32 | > 85 | 2.48 ± 0.45 | 1.93 | – | -0.247 | > 85 | Cn1nc(CC(=O)Nc2ccc(F)c(Cl)c2)c2ccccc2c1=O [SR-01000589827-1] | 0.04 | > 85
